According to paper PMC12481576, “Barbituric Acid Derivatives as Covalent Inhibitors of Leishmania braziliensis Dihydroorotate Dehydrogenase” (Journal of Medicinal Chemistry, 2025):
“And” between values parts separate entries of the source, which are not always exact repeats. Identical values can stand only once. Like-named read-outs stand apart in the source and are kept apart here.

How the values were obtained:
LbDHODH = LbDHODH (Leishmania braziliensis, UniProt E9AI53); assay: biochemical
How it was run: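 Covalent inactivation constant kinact/KI came from linear fitting of early kobs values against inhibitor concentration. Activity followed by A610 (DCIP, DHO substrate) every 3 s over 60 s in Tris pH 8.15/KCl/Triton X-100 buffer, in triplicate; single-point 100 μM screen run at 0 h and after 4-h preincubation.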

HsDHODH = molecular target: T1, HsDHODH (Homo sapiens, UniProt Q02127); assay: Selectivity assay: HsDHODH single-dose inhibition (DCIP reduction); assay type: biochemical
T1 construct: made in house
T1 sequence (Q02127 whole entry): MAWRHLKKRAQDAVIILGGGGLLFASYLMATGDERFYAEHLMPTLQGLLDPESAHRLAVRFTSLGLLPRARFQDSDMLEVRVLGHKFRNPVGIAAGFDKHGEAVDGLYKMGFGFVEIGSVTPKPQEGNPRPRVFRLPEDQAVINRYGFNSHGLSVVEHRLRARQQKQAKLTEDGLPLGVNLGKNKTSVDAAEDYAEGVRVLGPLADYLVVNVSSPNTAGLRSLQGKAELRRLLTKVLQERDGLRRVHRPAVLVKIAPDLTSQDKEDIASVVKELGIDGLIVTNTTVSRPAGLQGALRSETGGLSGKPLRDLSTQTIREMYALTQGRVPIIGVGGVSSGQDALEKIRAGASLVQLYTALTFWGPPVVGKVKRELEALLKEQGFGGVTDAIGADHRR
How it was run: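 Single-dose format, run in triplicate: His-purified HsDHODH (20 nM final) started by adding reaction buffer, absorbance at 610 nm (DCIP) recorded for 60 s at 3-s intervals. Initial rates converted to percent of no-compound control activity.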

[1] = Cell viability / cytotoxicity assay (PrestoBlue, 72 h); assay type: cell-based; conditions: human; THP-1 cell line, 72 h, max 200 μM; read-out: CC50
How it was run: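 Viability was measured with PrestoBlue fluorescence (560/590 nm, 2 h) after 72 h compound exposure at 37 °C. Test concentrations descended from 200 μM. The THP-1 monocytes had first been differentiated with 150 ng/mL phorbol myristate acetate for 48 h, then rested 24 h.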

in vitro [2] = assay: in vitro
Description: Solutions of the compounds were prepared in duplicate by diluting the stock solutions (10 mM) in phosphate buffered saline (PBS) pH 7.4 at a final concentration of 10 μM (5% DMSO). The solutions diluted in PBS pH 7.4 were then added to the donor portion of the plate (300 μL/well), while in the acceptor portion PBS pH 7.4 (200 μL/well) was added. The two portions of the plate were then coupled, and the system was incubated for 6 h at room temperature. Samples of the initial donor solution (T0) were collected at the beginning (T0) and stored at 5 °C. The final concentrations of compounds in the donor, acceptor and T0 wells were quantified by LC-MS/MS.

[3] = for Remarks (mouse microsomal stability study): NCF = no cofactor control
in vitro [4] = conditions: microsomes; for microsomal CLint at 1 μM / remaining at 5 min, 1 μM: male, CD1, mouse; for remaining at 5 min, 1 μM / remaining at 10 min, 1 µM / remaining at 20 min, 1 µM / remaining at 0.5 h, 1 µM / remaining at 1 h, 1 µM: pH 7.4, % Remaining; for remaining at 5 min, 1 μM: T=5 min; for remaining at 10 min, 1 µM / remaining at 20 min, 1 µM / remaining at 0.5 h, 1 µM / remaining at 1 h, 1 µM: mouse; for remaining at 10 min, 1 µM: T=10 min; for remaining at 20 min, 1 µM: T=20 min; for remaining at 0.5 h, 1 µM: T=30 min, 30 min; for remaining at 1 h, 1 µM: T=60 min, 60 min
[5] = Mouse liver microsome stability in the absence of cofactors (NCF); conditions: mouse, microsomes, pH 7.4, % Remaining, T=60 NCF, 1 µM, 60 min, no cofactor (NCF)
[6] = IC50 0 h, LbDHODH, without preincubation
[7] = IC50 4 h, LbDHODH, 4-h preincubation
[8] = read-out: Single dose (0h) % activity
[9] = read-out: Single dose (4h) % activity
[10] = average of n=2, 10µM, PBS pH 7.4/7.4, 6h at room temperature
[11] = mouse liver microsomes, 0.4 mg/ml, 1 µM
[12] = n=1, mouse liver microsomes, n=1
[13] = n=2, mouse liver microsomes, n=2
[14] = 0 h, pH 8.15, read-out: LbDHODH Activity±SD (%)
[15] = 4 h, pH 8.15, read-out: LbDHODH Activity±SD (%)

Chain of LbDHODH (E9AI53 entry or part of it): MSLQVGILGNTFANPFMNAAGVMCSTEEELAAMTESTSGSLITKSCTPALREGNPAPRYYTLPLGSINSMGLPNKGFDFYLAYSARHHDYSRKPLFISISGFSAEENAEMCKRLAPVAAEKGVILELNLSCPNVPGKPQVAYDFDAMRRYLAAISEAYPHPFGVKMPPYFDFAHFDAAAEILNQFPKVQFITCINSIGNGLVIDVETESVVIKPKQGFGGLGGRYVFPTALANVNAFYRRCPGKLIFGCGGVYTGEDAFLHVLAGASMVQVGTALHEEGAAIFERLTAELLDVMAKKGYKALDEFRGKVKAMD

With `O=C1NC(=O)C(=Cc2ccc(-c3ccccc3F)[nH]2)C(=O)N1` [2h, 5-((5-(2-Fluorophenyl)-1H-pyrrol-2-yl)methylene)pyrimidine-2,4,6(1H,3H,5H)-trione] the IC50 (LbDHODH; [6]) was over 100 µM, the IC50 (LbDHODH; [7]) was over 100 µM and the “IC50 4 h” value (LbDHODH; LbDHODH, 4-h preincubation) was “inactive”. For the same compound, the activity at 100 µM (LbDHODH; [8]) was 90 ± 10%, the activity at 100 µM (LbDHODH; [9]) was 60 ± 10% and the activity at 100 µM (HsDHODH; [8]) was 100 ± 11%. It also gave an activity at 100 µM (HsDHODH; [9]) of 71 ± 7%, a CC50 at 72 h [1] of over 200 µM and a recovery at 6 h, 10 µM (in vitro [2]; PAMPA, pH 7.4, % Recovery n=1, replicate n=1, 10µM, PBS pH 7.4/7.4, 6h at room temperature) of 38%. The recovery at 6 h, 10 µM (in vitro [2]; PAMPA, pH 7.4, % Recovery n=2, replicate n=2, 10µM, PBS pH 7.4/7.4, 6h at room temperature) was 43.3%, the recovery at 6 h, 10 µM (in vitro [2]; PAMPA, pH 7.4, Avg % Recovery, average of n=2, 10µM, PBS pH 7.4/7.4, 6h at room temperature) was 40.6% and the Papp (in vitro [2]; PAMPA, pH 7.4, permeability, PBS pH 7.4, 10 μM, 6 h) was 1.54 ×10⁻⁶ cm/s. The “Avg Log Pe (cm/sec)” value (in vitro [2]; [10]) was -5.8 cm/sec and -5.83 cm/sec, the “Avg Pe” value (in vitro [2]; [10]) was 1.54 ×10⁻⁶ cm/s and 1.539 ×10⁻⁶ cm/s and the “LogPe (cm/sec) n1” value (in vitro [2]; replicate n1, calculation section, 10µM, PBS pH 7.4/7.4, 6h) was -5.97 cm/sec. The “LogPe (cm/sec) n2” value (in vitro [2]; replicate n2, calculation section, 10µM, PBS pH 7.4/7.4, 6h) was -5.70 cm/sec, the “Pe (nm/sec) n=1” value (in vitro [2]; replicate n=1, 10µM (5% DMSO), PBS pH 7.4/7.4, 6h at room temperature, LC-MS/MS) was 10.8 nm/s and 10.80 nm/s and the “% Recovery n=1” value (in vitro [2]; replicate n=1, 10µM, PBS pH 7.4/7.4, 6h at room temperature) was 37.96%. The “Pe (nm/sec) n=2” value (in vitro [2]; replicate n=2, 10µM (5% DMSO), PBS pH 7.4/7.4, 6h at room temperature, LC-MS/MS) was 20.0 nm/s and 19.97 nm/s, the “% Recovery n=2” value (in vitro [2]; replicate n=2, 10µM, PBS pH 7.4/7.4, 6h at room temperature) was 43.27% and the “Calculated T-half (min), Average” value ([3]; mouse liver microsomes (CD1 male), 0.4 mg/ml protein, test conc 1 µM, average of n=1 and n=2) was 1.7 min. For the same compound, the “Calculated T-half (min), n=1” value ([3]; mouse liver microsomes (CD1 male), 0.4 mg/ml protein, test conc 1 µM, replicate n=1) was 1.70 min and 1.7 min, the “Calculated T-half (min), n=2” value ([3]; mouse liver microsomes (CD1 male), 0.4 mg/ml protein, test conc 1 µM, replicate n=2) was 1.71 min and 1.7 min and the “Modified T-half (min), Average” value ([3]; mouse liver microsomes, 0.4 mg/ml, 1 µM, average, limited to T Half range 3.00 - […]) was under 3.0 min. The “Remarks (mouse microsomal stability study)” value [3, 11] was “Very fast metabolism; Low NCF”, the “mouse liver microsomes T-half” value ([3]; mouse liver microsomes, NADPH, 1 μM) was under 3.0 min and the microsomal CLint at 1 μM (in vitro [4]; pH 7.4) was over 578 µL/min/mg. It also gave a remaining at 5 min, 1 μM (in vitro [4]; [12]) of 5.9%, a remaining at 5 min, 1 μM (in vitro [4]; [13]) of 5.1% and a microsomal CLint at 1 μM (in vitro [4]; pH 7.4, mouse liver microsomes CLint, app, mouse liver microsomes, NADPH, 1 μM) of over 578 µL/min/mg. It also gave a remaining at 10 min, 1 µM (in vitro [4]; [12]) of 1.7%, a remaining at 10 min, 1 µM (in vitro [4]; [13]) of 1.7% and a remaining at 20 min, 1 µM (in vitro [4]; [12]) of 0.7%. The remaining at 20 min, 1 µM (in vitro [4]; [13]) was 0.7%, the remaining at 0.5 h, 1 µM (in vitro [4]; [12]) was 0.554% and the remaining at 0.5 h, 1 µM (in vitro [4]; [13]) was 0.554%. The remaining at 1 h, 1 µM (in vitro [4]; [12]) was 0.158%, the remaining at 1 h, 1 µM (in vitro [4]; [13]) was 0.16% and the remaining at 1 h, 1 µM [5, 12] was 1%. It also gave a remaining at 1 h, 1 µM [5, 13] of 1.5%.

In the case of `O=C1NC(=O)C(=Cc2ccc(O)c([N+](=O)[O-])c2)C(=O)N1` [2d, 5-(4-Hydroxy-3-nitrobenzylidene)pyrimidine-2,4,6(1H,3H,5H)-trione], the activity at 0.390625 µM (LbDHODH; [14]) is reported as 99 ± 9%, the activity at 0.78125 µM (LbDHODH; [14]) is reported as 75 ± 6% and the activity at 1.5625 µM (LbDHODH; [14]) is reported as 60 ± 5%. For the same compound, the activity at 3.125 µM (LbDHODH; [14]) was 46 ± 5%, the activity at 6.25 µM (LbDHODH; [14]) was 25 ± 2% and the activity at 12.5 µM (LbDHODH; [14]) was 13 ± 1%. The activity at 25 µM (LbDHODH; [14]) was 11 ± 3%, the activity at 50 µM (LbDHODH; [14]) was 8 ± 1% and the activity at 100 µM (LbDHODH; [14]) was 6 ± 1%. For the same compound, the activity at 200 µM (LbDHODH; [14]) was 9 ± 4%, the activity at 400 µM (LbDHODH; [14]) was 6 ± 2% and the activity at 0.390625 µM (LbDHODH; [15]) was 75 ± 7%. The activity at 0.78125 µM (LbDHODH; [15]) was 76 ± 8%, the activity at 1.5625 µM (LbDHODH; [15]) was 72 ± 11% and the activity at 3.125 µM (LbDHODH; [15]) was 71 ± 6%. The activity at 6.25 µM (LbDHODH; [15]) was 57 ± 7%, the activity at 12.5 µM (LbDHODH; [15]) was 52 ± 6% and the activity at 25 µM (LbDHODH; [15]) was 49 ± 7%. The activity at 50 µM (LbDHODH; [15]) was 39 ± 7%, the activity at 100 µM (LbDHODH; [15]) was 28 ± 3% and the activity at 200 µM (LbDHODH; [15]) was 21 ± 8%. For the same compound, the activity at 400 µM (LbDHODH; [15]) was 12 ± 4%, the IC50 (LbDHODH; [6]) was 3 ± 1 µM and the IC50 (LbDHODH; [7]) was 13 ± 2 µM. It also gave an activity at 100 µM (LbDHODH; [8]) of 5 ± 2%, an activity at 100 µM (LbDHODH; [9]) of 16 ± 3% and an activity at 100 µM (HsDHODH; [8]) of 90 ± 10%. The activity at 100 µM (HsDHODH; [9]) was 92 ± 9%, the CC50 at 72 h [1] was over 200 µM and the “Remarks (PAMPA)” value (in vitro [2]; 10µM, PBS pH 7.4/7.4, 6h at room temperature, LC-MS/MS) was “Poor detection sensitivity/Compound might be unstable in assay matrix”. For the same compound, the “Remarks (mouse microsomal stability study)” value [3, 11] was “Poor detection sensitivity/Compound might be unstable in assay matrix”.
